The subject of the first assay is CAL-12T. The assay is described as follows: relative viability (nuclei count vs DMSO), 5 days (fraction); higher = more cells survive. The settings on record: first compound 6.325 µM. In outline:
(§1)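 Relative viability equals treated-well nuclei counts divided by vehicle-well nuclei counts. Counts came from 4× images of lung cancer cell lines grown in 1536-well plates for 5 days after pin-tool dosing on the day after seeding. Dosing used one drug alone or a fixed anchor-drug dose plus five library-drug doses (not always all listed) in √10 steps, and values are medians of duplicate plates.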
Regarding `COCC1(CO)C(=O)C2CCN1CC2` (stereo unspecified) [PRIMA-1MET] + O=C(c1cc(Cc2n[nH]c(=O)c3ccccc23)ccc1F)N1CCN(C(=O)C2CC2)CC1 [Olaparib] (partner 8 µM), the relative viability came to 0.445.

The assay is the same for the next values; noted with them: first compound 20 µM.
In turn, `COCC1(CO)C(=O)C2CCN1CC2` (stereo unspecified) [PRIMA-1MET] + N=C(N)NC(=N)NCCc1ccccc1 [Phenformin] (partner 250 µM) came in with a relative viability of 0.0696.
Same read-out and setting: to `COCC1(CO)C(=O)C2CCN1CC2` (stereo unspecified) [PRIMA-1MET] + CC(=O)c1c(C)c2cnc(Nc3ccc(N4CCNCC4)cn3)nc2n(C2CCCC2)c1=O [Palbociclib] (partner 0.5 µM) belongs 0.0494.
On the same count and under the same terms, to `COCC1(CO)C(=O)C2CCN1CC2` (stereo unspecified) [PRIMA-1MET] + Cc1nc(Nc2ncc(C(=O)Nc3c(C)cccc3Cl)s2)cc(N2CCN(CCO)CC2)n1 [Dasatinib] (partner 0.075 µM) belongs 0.0829.
Same read-out and setting: to `COCC1(CO)C(=O)C2CCN1CC2` (stereo unspecified) [PRIMA-1MET] + O=C(c1cc(Cc2n[nH]c(=O)c3ccccc23)ccc1F)N1CCN(C(=O)C2CC2)CC1 [Olaparib] (partner 8 µM) belongs 0.696.

A further assay has as its system H3255. Described as above. The settings on record: first compound 0.2 µM. The method in brief: as §1
Molecule `COCC1(CO)C(=O)C2CCN1CC2` (stereo unspecified) [PRIMA-1MET] + N=C(N)NC(=N)NCCc1ccccc1 [Phenformin] (partner 250 µM) yielded a relative viability of 0.458.
Still for that read-out and setting: to `COCC1(CO)C(=O)C2CCN1CC2` (stereo unspecified) [PRIMA-1MET] + CC(=O)c1c(C)c2cnc(Nc3ccc(N4CCNCC4)cn3)nc2n(C2CCCC2)c1=O [Palbociclib] (partner 0.5 µM) belongs 0.319; to `COCC1(CO)C(=O)C2CCN1CC2` (stereo unspecified) [PRIMA-1MET] + Cc1nc(Nc2ncc(C(=O)Nc3c(C)cccc3Cl)s2)cc(N2CCN(CCO)CC2)n1 [Dasatinib] (partner 0.075 µM), 0.285; to `COCC1(CO)C(=O)C2CCN1CC2` (stereo unspecified) [PRIMA-1MET] + O=C(c1cc(Cc2n[nH]c(=O)c3ccccc23)ccc1F)N1CCN(C(=O)C2CC2)CC1 [Olaparib] (partner 8 µM), 0.627.

The same assay, now with this note: first compound 0.6325 µM.
As to `COCC1(CO)C(=O)C2CCN1CC2` (stereo unspecified) [PRIMA-1MET] + N=C(N)NC(=N)NCCc1ccccc1 [Phenformin] (partner 250 µM), the relative viability is 0.335.
On the same count and under the same terms, for `COCC1(CO)C(=O)C2CCN1CC2` (stereo unspecified) [PRIMA-1MET] + CC(=O)c1c(C)c2cnc(Nc3ccc(N4CCNCC4)cn3)nc2n(C2CCCC2)c1=O [Palbociclib] (partner 0.5 µM) the value was 0.293.
`COCC1(CO)C(=O)C2CCN1CC2` (stereo unspecified) [PRIMA-1MET] + Cc1nc(Nc2ncc(C(=O)Nc3c(C)cccc3Cl)s2)cc(N2CCN(CCO)CC2)n1 [Dasatinib] (partner 0.075 µM): the relative viability was determined as 0.439.
On the same count and under the same terms, to `COCC1(CO)C(=O)C2CCN1CC2` (stereo unspecified) [PRIMA-1MET] + O=C(c1cc(Cc2n[nH]c(=O)c3ccccc23)ccc1F)N1CCN(C(=O)C2CC2)CC1 [Olaparib] (partner 8 µM) belongs 0.502.

Still in this assay, the particulars now being: first compound 2 µM.
Regarding `COCC1(CO)C(=O)C2CCN1CC2` (stereo unspecified) [PRIMA-1MET] + N=C(N)NC(=N)NCCc1ccccc1 [Phenformin] (partner 250 µM), the relative viability was determined as 0.36.
Still for that read-out and setting: to `COCC1(CO)C(=O)C2CCN1CC2` (stereo unspecified) [PRIMA-1MET] + CC(=O)c1c(C)c2cnc(Nc3ccc(N4CCNCC4)cn3)nc2n(C2CCCC2)c1=O [Palbociclib] (partner 0.5 µM) belongs 0.312.
On the same count and under the same terms, to `COCC1(CO)C(=O)C2CCN1CC2` (stereo unspecified) [PRIMA-1MET] + Cc1nc(Nc2ncc(C(=O)Nc3c(C)cccc3Cl)s2)cc(N2CCN(CCO)CC2)n1 [Dasatinib] (partner 0.075 µM) belongs 0.487.
`COCC1(CO)C(=O)C2CCN1CC2` (stereo unspecified) [PRIMA-1MET] + O=C(c1cc(Cc2n[nH]c(=O)c3ccccc23)ccc1F)N1CCN(C(=O)C2CC2)CC1 [Olaparib] (partner 8 µM) came in with a relative viability of 0.576.

Still in this assay, the particulars now being: first compound 6.325 µM.
Consider `COCC1(CO)C(=O)C2CCN1CC2` (stereo unspecified) [PRIMA-1MET] + N=C(N)NC(=N)NCCc1ccccc1 [Phenformin] (partner 250 µM), for which the relative viability amounted to 0.374.
On the same count and under the same terms, for `COCC1(CO)C(=O)C2CCN1CC2` (stereo unspecified) [PRIMA-1MET] + CC(=O)c1c(C)c2cnc(Nc3ccc(N4CCNCC4)cn3)nc2n(C2CCCC2)c1=O [Palbociclib] (partner 0.5 µM) the value was 0.294; for `COCC1(CO)C(=O)C2CCN1CC2` (stereo unspecified) [PRIMA-1MET] + Cc1nc(Nc2ncc(C(=O)Nc3c(C)cccc3Cl)s2)cc(N2CCN(CCO)CC2)n1 [Dasatinib] (partner 0.075 µM), 0.373; for `COCC1(CO)C(=O)C2CCN1CC2` (stereo unspecified) [PRIMA-1MET] + O=C(c1cc(Cc2n[nH]c(=O)c3ccccc23)ccc1F)N1CCN(C(=O)C2CC2)CC1 [Olaparib] (partner 8 µM), 0.606.

The assay is the same for the next values; noted with them: first compound 20 µM.
As to `COCC1(CO)C(=O)C2CCN1CC2` (stereo unspecified) [PRIMA-1MET] + N=C(N)NC(=N)NCCc1ccccc1 [Phenformin] (partner 250 µM), the relative viability came out at 0.293.
Same read-out and setting: for `COCC1(CO)C(=O)C2CCN1CC2` (stereo unspecified) [PRIMA-1MET] + CC(=O)c1c(C)c2cnc(Nc3ccc(N4CCNCC4)cn3)nc2n(C2CCCC2)c1=O [Palbociclib] (partner 0.5 µM) the value was 0.33.
Same read-out and setting: to `COCC1(CO)C(=O)C2CCN1CC2` (stereo unspecified) [PRIMA-1MET] + Cc1nc(Nc2ncc(C(=O)Nc3c(C)cccc3Cl)s2)cc(N2CCN(CCO)CC2)n1 [Dasatinib] (partner 0.075 µM) belongs 0.28.
Same read-out and setting: for `COCC1(CO)C(=O)C2CCN1CC2` (stereo unspecified) [PRIMA-1MET] + O=C(c1cc(Cc2n[nH]c(=O)c3ccccc23)ccc1F)N1CCN(C(=O)C2CC2)CC1 [Olaparib] (partner 8 µM) the value was 0.533.

Another assay deals with HCC-15. The assay is described as above. Particulars: first compound 0.2 µM. In outline: as §1
In the case of `COCC1(CO)C(=O)C2CCN1CC2` (stereo unspecified) [PRIMA-1MET] + N=C(N)NC(=N)NCCc1ccccc1 [Phenformin] (partner 250 µM), the relative viability turned out to be 0.427.

Source of the values: the supplement of paper PMC10307832.
